Results published in patent publication US9567306B2, “Inhibition of macrophage migration inhibitory factor in melanoma and colon cancer” (THE FEINSTEIN INSTITUTE FOR MEDICAL RESEARCH, priority 2014, dated 2017).
Entries after “also recorded” stand apart in the source; their conditions may differ. Each block holds one compound with its values, some of them ahead of it.

Key:
B16 tumor = conditions: 80 mg/kg (Yaddanapudi et al.); cited from earlier work
CT-26 colon tumors = conditions: administered twice per week (He et al.); cited from earlier work
MIF = target: T1, MIF (Homo sapiens, UniProt P14174); assay: MIF tautomerase inhibition assay (L-dopachrome methyl ester); type: biochemical
T1 sequence (P14174 2-115 limits assumed): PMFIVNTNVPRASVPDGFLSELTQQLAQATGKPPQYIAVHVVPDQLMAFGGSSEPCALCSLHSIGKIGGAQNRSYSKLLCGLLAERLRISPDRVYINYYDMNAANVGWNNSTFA
Method: MIF tautomerase inhibition assay: MIF tautomerase activity was measured using a UV-Visible spectrophotometer (SHIMADZU, UV1600U). A fresh stock solution of L-dopachrome methyl ester was prepared at 2.4 mM through oxidation of L-3,4-dihydroxyphenylalanine methyl ester with sodium periodate. 1 μL of MIF solution (800-900 μg/mL) and 1 μL of a dimethyl sulfoxide (DMSO) solution with various concentrations of the MIF inhibitor were added into a plastic cuvette (10 mm, 1.5 mL) containing 0.7 mL assay buffer (50 mM potassium phosphate, pH 7.2). Then, activated L-dopachrome methyl ester solution (0.3 mL) was added to the assay buffer mixture. Activity was determined at room temperature and spectrometric measurements were made every 5 sec at λ, =475 nm for total 20 sec, by monitoring the rate of decolorization of L-dopachrome in comparison to a standard solution.

Solubility comparison = type: physicochemical; conditions: relative to ISO-66
[1] = Stability in buffer (decarboxylation, mass spectrometry); type: physicochemical; conditions: upon formulation in buffer; by mass spectrometry

SMILES: Ic1cc(-c2ccccc2)ncn1 [4-IPP]
effect on rate of B16 tumor growth (B16 tumor): significantly slowed the rate of B16 tumor growth

SMILES: COC(=O)CC1CC(c2ccc(O)cc2)=NO1 (centres unmarked) [ISO-1]
inhibition of CT-26 colon tumors (CT-26 colon tumors): 25%

IC50 (MIF): 1800 nM | solubility (Solubility comparison): better solubility than ISO-66
SMILES: O=C(O)CC(=O)CC1CC(c2ccc(O)c(F)c2)=NO1 (centres unmarked) [KF III 53Y]
stability (decarboxylation to ISO-66) [1]: spontaneously decarboxylates to form ISO-66; also recorded: undergoes fast decarboxlyation to form ISO-66; also recorded: spontaneously decarboxylated non-enzymatically
